Read-outs that look alike come from different tables or passages of the source.
System: mice
Assay: Inverted screen test in mice (Example 4)
Format: in vivo
Details: for ED50: Mus musculus, ip, read-out: ED-50 (95% confidence limits); for potency relative to vanillin: early time points (up to 5 minutes), ethanol vehicle itself gives approximately 10% impairment
Experimental: An inverted screen test was performed on mice to investigate the effect of vanillin and vanillin analogs on muscular function. After i.p. injection of vanillin or vehicle, each mouse was placed on a wire screen (12.8 cm×12.8 cm with a 6 mm mesh size) and the screen was inverted. A positive effect was found if the drug caused the mouse to fall from the screen within 60 seconds. A negative effect was found if the mouse had the ability to climb from the underside of the screen to the top side of the screen within the 60 second time period. Hanging from the underside of the screen without falling but without climbing to the topside at 60 seconds is recorded as a one-half positive effect per the convention of Coughenour, L. L.; Mclean, J. R.; Parker, R. B., "A New Device for the Rapid Measurement of Impaired Motor Function in Mice," Pharmacol. Biochem. Behav., 6: 351-353; 1977. The test was performed at 2, 5, 10, and 30 minutes following administration of vanillin or vehicle. At each of those times, an ED-50 (and 95% confidence limits) was determined for vanillin. Six mice were used in each experimental group.
Several analogs of vanillin were also examined in this test. The chemical structures and chemical names for these compounds are described hereinabove.
The testing of these compounds was limited both by supply of compound and by solubility. Testing was performed at 2, 5, 10, 20 minutes after administration of drug or vehicle. The vehicles used to solubilize the analogs were as follows: 10% ethanol for TBJ1, TBJ2, and TBJ3; 3% ammonium hydroxide solution in saline for FSA (pH=9); 6.7% ammonium hydroxide in saline for TB17 (pH=9.3); and 20% ethanol, 1% ammonium hydroxide solution in saline for TB34 (pH=10.0). ED-50s of compounds (and 95% confidence limits) were calculated in cases where the data permitted the calculation.

## COC(=O)c1ccc(O)c(OC)c1 [TBJ1]
200 mg/kg, 5 minutes
  effect on performance in inverted screen test: 100%
200 mg/kg, 20 minutes
  effect on performance in inverted screen test: 75%
Doses lower than 200 mg/kg
  effect on performance in inverted screen test: did not produce significant effects

## O=Cc1ccc(OCc2ccc(C(=O)O)cc2)c(C(=O)O)c1 [TB34]
Not included in Table 4
  effect on performance in inverted screen test: mild or erratic effects

## COC(=O)c1ccc(OC)c(O)c1 [TBJ2]
2 min, 2 min post-treatment
  ED50: ~100 mg/kg
5 min, 5 min post-treatment
  ED50: > 100 mg/kg
10 min, 10 min post-treatment
  ED50: 132 mg/kg
20 min, at 20 min (printed in the 30 min line)
  ED50: ~140 mg/kg
  potency relative to vanillin: approximately equipotent to vanillin
Highest dose (200 mg/kg)
  persistence of effect on performance: 20 min
mouse, in vivo
  potency and duration relative to vanillin: approximately equipotent and as long or longer acting

## COC(=O)Cc1ccc(O)c(OC)c1 [TBJ3]
10 min post-treatment, inactive at 200 (mg/kg)
  ED-50: activity in words: inactive
5 min, 5 min post-treatment
  ED50: 99.7 mg/kg
After injection
  time by which effect had essentially abated: ≤ 10 min
  potency relative to vanillin: approximately equipotent to vanillin

## O=Cc1ccc(O)c(C(=O)O)c1 [FSA]
Not included in Table 4
  effect on performance in inverted screen test: failed to affect performance

## O=Cc1ccc(OCc2ccccc2)c(C(=O)O)c1 [TB17]
Not included in Table 4
  effect on performance in inverted screen test: failed to affect performance

From US5668182A, “Method of calming or sedating an animal with a hydroxy benzaldehyde compound” (priority 1996, dated 1997)
